Entries after “also recorded” stand apart in the source; their conditions may differ.
Tests used:
[1] = 0.5 mg/kg QD x 4 days oral versus i.v., sheep, listed as 2,5-anhydro-3-O-(α-L-idopyranosyl)-D-mannitol hepta-O-sulfate sodium salt
[2] = tested on: allergic sheep challenged with Ascaris suum antigen; test: Antigen-induced early and late airway responses (EAR, LAR), pulmonary airflow resistance RL, in allergic sheep; type: in vivo
Protocol: (§1) Pulmonary airflow resistance was measured by taking allergic sheep previously verified as dual bronchoconstrictor responders to Ascaris suum antigen. The sheep were intubated with a cuffed nasotracheal tube and pulmonary airflow resistance (RL) was measured by the esophageal balloon catheter technique. Airway responsiveness was determined by first securing cumulative dose response curves to inhaled carbachol (a constrictor agonist) by measuring RL before and after inhalation of buffered saline and after each administration of 10 breaths of increasing concentrations of carbachol (0.25, 0.5, 1.0, 2.0 and 4.0% wt/vol solution). Airway responsiveness was measured by determining the cumulative provocation dose (PD400) of carbachol (in breath units) that increased RL to 400% above baseline. One breath unit was defined as one breath of 1% carbachol solution.
To illustrate the effectiveness of the formulations according to the invention to treat and alleviate allergen related diseases and conditions, including but not limited to the specific diseases and conditions recited herein, sheep were assessed in multiple experiments which compared various formulations containing no active ingredient to animals which were provided formulations comprising a compound of formula I (SSS-02). To measure pulmonary airflow resistance, the sheep were intubated with a cuffed nasotracheal tube and pulmonary airflow resistance (RL) was measured by the esophageal balloon catheter technique. These methods are accepted and well known methods found in the literature.
(§2) For airway studies, each animal's baseline airway responsiveness (PD400) was determined and then, on different experimental days, the test sheep underwent airway challenge with Ascaris suum antigen. RL was measured to establish baseline, then measured again immediately after antigen challenge and hourly for an eight hour period and then a post challenge PD400 was measured 24 hours after antigen challenge. In each of the Figures presented herein, FIGS. 1A, 2A, 3A etc. present day two data measured on an hourly basis for the eight hour period and contain control data (closed circles) and drug treatment data (open circles or triangles (closed or open)). The drug treatment experiments were conducted on the same animals used in the control studies but after a period of several weeks following the day 3 PD400 measurements. FIGS. 1B, 2B, 3B etc. contain the day one baseline PD400 data and day three PD400 data following antigen challenge in control or drug treated animals.
(§3) Data were expressed or may be expressed as (a) mean+/−SE % change of RL and (b) PD400 in breath units. Data were also expressed as (c) % protection of Early Airway Response (EAR, for 0-4 hours) and Late Airway Response (LAR, for 4-8 hours), as estimated by area under the curve for EAR and LAR respectively. And (d) AHR %

[3] = tested on: allergic sheep challenged with Ascaris suum antigen; test: Post-antigen airway hyperresponsiveness (AHR), PD400 of inhaled carbachol, in allergic sheep; type: in vivo
Protocol: as §1
To assess airway responsiveness, cumulative dose response curves to inhaled carbachol were performed by measuring RL before and after inhalation of buffered saline and after each administration of 10 breaths of increasing concentrations of carbachol (0.25, 0.5, 1.0, 2.0, and 4.0% wt/vol solution). Airway responsiveness was measured by determining the cumulative provocation dose (PD400) of carbachol (in breath units) that increased RL to 400% above baseline. One breath unit was defined as one breath of 1% carbachol solution.
as §2, §3
Thus, the numbers in the Figures as presented were obtained by the formula: Baseline PD400-drugantigenPD400 was x-y;Baseline PD400-ControlantigenPD400 was x-z. x-y/x-z×100=n. 100−n=X % protection in AHR.

[4] = i.v. 0.5 mg/kg QD for 4 days, last dose 90 min before antigen, n=5
[5] = inhaled multiple dose 10 mg x 3, n=6
[6] = inhaled multiple dose 10 mg x 3, n=6, sodium salt
[7] = inhaled single dose 10 mg, 30 min before antigen, n=5
[8] = oral 0.5 mg/kg BID x 7 doses, last dose 90 min before antigen, n=5
[9] = oral 0.5 mg/kg x 3 doses, one every 12 h, antigen 90 min after last dose, n=8
[10] = oral 1 mg/kg x 3 doses, one every 12 h, antigen 90 min after last dose, n=8
[11] = oral liquid 0.5 mg/kg QD for 4 days, last dose 90 min before antigen, n=5
[12] = single oral dose 0.5 mg/kg, 90 min before antigen, n=5
[13] = single oral dose 1 mg/kg, 90 min before antigen, n=5

O=S(=O)([O-])OC[C@@H]1O[C@@H](O[C@H]2[C@H](OS(=O)(=O)[O-])[C@@H](COS(=O)(=O)[O-])O[C@@H]2COS(=O)(=O)[O-])[C@H](OS(=O)(=O)[O-])[C@@H](OS(=O)(=O)[O-])[C@@H]1OS(=O)(=O)[O-].[Na+].[Na+].[Na+].[Na+].[Na+].[Na+].[Na+] [SSS-056-01, 2,5-anhydro-3-O-(α-L-idopyranose)-D-mannitol-hepta-O-sulfate-hepta sodium salt]
bioavailability of oral dose versus intravenous dose [1]: comparable bioavailability | inhibition of EAR [2, 4]: 77% | inhibition of LAR [2, 4]: 92% | inhibition of LAR [2, 5]: 75% | effect on EAR [2, 6]: without an effect; also recorded: no significant cumulative effect | effect on LAR (in words) [2, 6]: did have an effect on LAR; also recorded: did inhibit LAR | effect on EAR, LAR and AHR ([2]; inhaled single dose 5 mg, 30 min before antigen, n=5): ineffective | effect on EAR [2, 7]: without an effect | inhibition of LAR [2, 7]: 75% | effect on EAR, LAR and AHR ([2]; oral 0.25 mg/kg x 3 doses, one every 12 h, antigen 90 min after last dose, n=8): ineffective | inhibition of EAR [2, 8]: 76% | inhibition of LAR [2, 8]: 96% | inhibition of EAR [2, 9]: 30% | inhibition of LAR [2, 9]: 85% | inhibition of EAR [2, 10]: 54% | inhibition of LAR [2, 10]: 87% | inhibition of EAR [2, 11]: 77% | inhibition of LAR [2, 11]: 95% | effect on EAR, LAR and AHR ([2]; single oral dose 0.25 mg/kg, 90 min before antigen, n=5): ineffective | effect on EAR [2, 12]: without an effect | inhibition of LAR [2, 12]: 71% | effect on EAR [2, 13]: without an effect | inhibition of LAR [2, 13]: 77% | inhibition of AHR ([3]; i.v. 0.5 mg/kg QD for 4 days, PD400 24 h post-antigen, n=5): 100% | inhibition of AHR [3, 5]: 100% | inhibition of AHR [3, 7]: 100% | inhibition of AHR ([3]; oral 0.5 mg/kg BID x 7 doses, n=5): 100% | inhibition of AHR ([3]; oral 0.5 mg/kg x 3 doses, one every 12 h, n=8): 100% | inhibition of AHR ([3]; oral 1 mg/kg x 3 doses, one every 12 h, n=8): 100% | inhibition of AHR ([3]; oral liquid 0.5 mg/kg QD for 4 days, PD400 24 h post-antigen, n=5): 100% | inhibition of AHR [3, 12]: 100% | inhibition of AHR [3, 13]: 100%

— US10829509B2, “Pure heptasulfated disaccharides having improved oral bioavailability” (OPKO Pharmaceuticals, LLC., priority 2016, dated 2020)
